{
  "source": "patent US20220047563A1",
  "about": "“COMBINATION THERAPY FOR THE TREATMENT OF ESTROGEN-RECEPTOR POSITIVE BREAST CANCER” (ZENITH EPIGENETICS LTD., priority 2018, published 2022)",
  "format_in_all_cases": "cell-based",
  "key": {"WT-MCF7 cells [1]": {"tested_on": "WT-MCF7 cells", "test": "Cell viability (CellTiter Fluor), combination of Compound I with fulvestrant, MCF7", "conditions": "7 days", "method": "MCF7 cells were plated at a density of 7,500 cells per well in 96 well flat bottom plates in phenol-red free 1640-RPMI media containing 10% charcoal-stripped FBS and penicillin/streptomycin and incubated for 24 hours at 37° C., 5% CO2. Media was replaced with phenol-red free 1640-RPM I media containing 10% charcoal-stripped FBS and penicillin/streptomycin treated with constant ratios of either Compound I or fulvestrant as single agents, or a combination of both drugs at four different concentrations (2× IC50, 1× IC50, 0.5× IC50, 0.25× IC50), and incubated at 37° C., 5% CO2 for 7 days. The cells were retreated as described above on the 3rd or 4th day. Triplicate wells were used for each concentration and wells containing only media with 0.1% DMSO were used as a control. […] Fluorescence at 380-400 nm Excitation/505 nm Emission was read in a fluorometer and the percentage of cell titer relative to DMSO-treated cells was calculated after correcting for background by subtracting the blank well's signal. IC50 values for single agents were calculated using the GraphPad Prism software. Quantification of synergy was done by calculating combination indices (CI) using the CalcuSyn software (Biosoft) based on the Chou-Talalay algorithm (Chou and Talalay, 1984), and averaging the CI values for the effective doses (ED) 50, 75, and 90."}, "ZR-75-1 cells": {"tested_on": "ZR-75-1 cells", "test": "Cell viability (CellTiter Fluor), combination of Compound I with abemaciclib, ZR-75-1", "conditions": "7 days, average of CI at ED50, 75, 90 (Chou-Talalay)", "method": "(§1) MCF7, Palbo-R-MCF7, ZR-75-1, Abema-R MCF7, and Palbo-R ZR-75-1 cells were plated at a density of 7,500 cells per well in 96 well flat bottom plates in 1640-RPMI media containing 10% FBS and penicillin/streptomycin and incubated for 24 hours at 37° C., 5% CO2. Media was replaced with 1640-RPM I containing 10% FBS with constant ratios of either Compound I or abemaciclib as single agents, or a combination of both drugs at four different concentrations (2× IC50, 1× IC50, 0.5× IC50, 0.25× IC50), and incubated at 37° C., 5% CO2 for 7 days. The cells were retreated as described above on the 3rd or 4th day. Triplicate wells were used for each concentration and wells containing only media with 0.1% DMSO were used as a control. […] Fluorescence at 380-400 nm Excitation/505 nm Emission was read in a fluorometer and the percentage of cell titer relative to DMSO-treated cells was calculated after correcting for background by subtracting the blank well's signal. IC50 values for single agents were calculated using the GraphPad Prism software. Quantification of synergy was done by calculating combination indices (CI) using the CalcuSyn software (Biosoft) based on the Chou-Talalay algorithm (Chou and Talalay, 1984), and averaging the CI values for the effective doses (ED) 50, 75, and 90."}, "Abema-R MCF7 cells": {"tested_on": "Abema-R MCF7 cells", "test": "Cell viability (CellTiter Fluor), combination of Compound I with abemaciclib, Abema-R MCF7", "conditions": "7 days, average of CI at ED50, 75, 90 (Chou-Talalay)", "method": "as §1"}, "[2]": {"tested_on": "MCF7, Palbo-R-MCF7, ZR-75-1, Abema-R MCF7, and Palbo-R ZR-75-1 cells", "test": "Cell viability (CellTiter Fluor), combination of Compound I with abemaciclib, ER+ breast cancer cell line panel", "conditions": "7 days", "method": "as §1"}, "Palbo-R-MCF7 cells": {"tested_on": "Palbo-R-MCF7 cells", "test": "Cell viability (CellTiter Fluor), combination of Compound I with abemaciclib, Palbo-R-MCF7", "conditions": "7 days, average of CI at ED50, 75, 90 (Chou-Talalay)", "method": "as §1"}, "WT-MCF7 cells [3]": {"tested_on": "WT-MCF7 cells", "test": "Cell viability (CellTiter Fluor), combination of Compound I with abemaciclib, WT-MCF7", "conditions": "7 days, average of CI at ED50, 75, 90 (Chou-Talalay)", "method": "as §1"}, "Palbo-R ZR-75-1 cells": {"tested_on": "Palbo-R ZR-75-1 cells", "test": "Cell viability (CellTiter Fluor), combination of Compound I with abemaciclib, Palbo-R ZR-75-1", "conditions": "7 days, average of CI at ED50, 75, 90 (Chou-Talalay)", "method": "as §1"}},
  "data": [
    {"smiles": "CNc1nc2ncc(-c3c(C)noc3C)cc2n1Cc1ccccc1", "note": "[Compound I, 1-benzyl-6-(3,5-dimethylisoxazol-4-yl)-N-methyl-1H-imidazo[4,5-b]pyridine-2-amine]", "values": [
      {"measurement": "inhibition of cell viability, combination versus single agents", "setting": "WT-MCF7 cells [1]; addition of Compound I to fulvestrant", "result": "improved inhibition of cell viability compared to either single agent"},
      {"measurement": "CI (combination index)", "setting": "WT-MCF7 cells [1]; combination with fulvestrant, charcoal-stripped FBS, phenol-red free media, average of CI at ED50, 75, 90 (Chou-Talalay)", "result": 0.51},
      {"measurement": "CI (combination index)", "setting": "ZR-75-1 cells", "result": 0.14},
      {"measurement": "CI (combination index)", "setting": "Abema-R MCF7 cells", "result": 0.30},
      {"measurement": "inhibition of cell viability, combination versus single agents", "setting": "[2]; addition of Compound I to abemaciclib, five cell lines", "result": "improved inhibition of cell viability compared to either single agent"},
      {"measurement": "average CI value", "setting": "[2]; combination with abemaciclib, depending upon the cell line (five cell lines)", "result": "0.08-0.35"},
      {"measurement": "CI (combination index)", "setting": "Palbo-R-MCF7 cells", "result": 0.20},
      {"measurement": "CI (combination index)", "setting": "WT-MCF7 cells [3]", "result": 0.08},
      {"measurement": "CI (combination index)", "setting": "Palbo-R ZR-75-1 cells", "result": 0.35}
    ]}
  ]
}
